Reference: article PMC8565742 (PLoS Neglected Tropical Diseases, 2021)

Key:
Sm.TRPMPZQ [1] = target: T1, Sm.TRPMPZQ (Schistosoma mansoni, UniProt A0A5K4F0X5); test: cell-based; details: S3 Table, titration
Experimental: HEK cells were transfected with cDNA (400μg/ml DNA) encoding Sm.TRPMPZQ using a Maxcyte STX electroporation system and incubated overnight at 37°C. This system is uniquely capabable of large scale transfections providing one batch of cells ready for large scale HTS [30]. Briefly, the HEK cells were resuspended at 10^8/ml in Maxcyte electroporation buffer. Plasmid DNA was added to the cells in buffer to achieve a concentration of 400 μg/ml from a stock of 5mg/ml (in TE buffer). This mixture was loaded into the appropriate cassette, inserted into the machine, and cells electroporated. Cells were then frozen to provide a single supply of transfected cells for all subsequent assays. On the day of the assays, cells were thawed in a 37°C waterbath, and resuspended in DMEM + 10% FBS and counted. The cells were pelleted by centrifugation at 170xg for 5 minutes. The media was aspirated, and the remaining pellet was resuspended in 1x HBSS with 20 mM HEPES and 1% DMSO to achieve 1.33x10^6cells/ml. This cell suspension was then dispensed at 3 μl/well to the 1536 well plates (Greiner Bio One part 789072) at a density of 4,000 cells/well. Measurements of fluorescence intensity (λex = 470 nm, λem = 535 nm) were made using a FLIPR (Molecular Devices FLIPR Tetra). A read of basal fluorescence values was made (5s) prior to addition of compounds or controls (30 nl). In both ‘agonist’ and ‘antagonist mode’, the total assay volume was 6μl (1% DMSO). […] Ligand performance was categorized using an algorithm based on the activity of the entire dataset to define a ‘hit-cutoff’ parameter for both agonist-mode and antagonist-mode screening. […] Titration assays were executed using the same reagents, protocols and detection systems, done as 10-point concentration-response curves, performed in triplicate. Counter-screening was performed using untransfected HEK293 cells for comparison with results testing the same compounds effect on cells expressing Sm.TRPMPZQ, with ATP used as the positive control. For each compound, activity was plotted against compound concentration and data were fitted with a sigmoidal function. […] ChemAxon (https://www.chemaxon.com) academic licensing was provided for the use of Instant JChem (ver. 15.10.12.0) to perform compound mining of the libraries utilized in this effort.

Sm.TRPMPZQ [2] = target: T1, Sm.TRPMPZQ; test: cell-based; details: S3 Table, titration; remark: listed apart in the source
Experimental: HEK cells were transfected with cDNA (400μg/ml DNA) encoding Sm.TRPMPZQ using a Maxcyte STX electroporation system and incubated overnight at 37°C. This system is uniquely capabable of large scale transfections providing one batch of cells ready for large scale HTS [30]. Briefly, the HEK cells were resuspended at 10^8/ml in Maxcyte electroporation buffer. Plasmid DNA was added to the cells in buffer to achieve a concentration of 400 μg/ml from a stock of 5mg/ml (in TE buffer). This mixture was loaded into the appropriate cassette, inserted into the machine, and cells electroporated. Cells were then frozen to provide a single supply of transfected cells for all subsequent assays. On the day of the assays, cells were thawed in a 37°C waterbath, and resuspended in DMEM + 10% FBS and counted. The cells were pelleted by centrifugation at 170xg for 5 minutes. The media was aspirated, and the remaining pellet was resuspended in 1x HBSS with 20 mM HEPES and 1% DMSO to achieve 1.33x10^6cells/ml. […] A read of basal fluorescence values was made (5s) prior to addition of compounds or controls (30 nl). In both ‘agonist’ and ‘antagonist mode’, the total assay volume was 6μl (1% DMSO). […] Ligand performance was categorized using an algorithm based on the activity of the entire dataset to define a ‘hit-cutoff’ parameter for both agonist-mode and antagonist-mode screening. […] Titration assays were executed using the same reagents, protocols and detection systems, done as 10-point concentration-response curves, performed in triplicate. Counter-screening was performed using untransfected HEK293 cells for comparison with results testing the same compounds effect on cells expressing Sm.TRPMPZQ, with ATP used as the positive control. For each compound, activity was plotted against compound concentration and data were fitted with a sigmoidal function.

[3] = tested on: untransfected HEK293 cells; test: Counterscreen, agonist mode, Ca2+ signal in untransfected HEK cells; assay type: cell-based; details: S3 Table, counterscreen titration; for EC50: unit inferred, read-out: HEK AG Final EC50
Experimental: (§1) HEK cells were transfected with cDNA (400μg/ml DNA) encoding Sm.TRPMPZQ using a Maxcyte STX electroporation system and incubated overnight at 37°C. This system is uniquely capabable of large scale transfections providing one batch of cells ready for large scale HTS [30]. Briefly, the HEK cells were resuspended at 10^8/ml in Maxcyte electroporation buffer. Plasmid DNA was added to the cells in buffer to achieve a concentration of 400 μg/ml from a stock of 5mg/ml (in TE buffer). This mixture was loaded into the appropriate cassette, inserted into the machine, and cells electroporated. Cells were then frozen to provide a single supply of transfected cells for all subsequent assays. On the day of the assays, cells were thawed in a 37°C waterbath, and resuspended in DMEM + 10% FBS and counted. The cells were pelleted by centrifugation at 170xg for 5 minutes. The media was aspirated, and the remaining pellet was resuspended in 1x HBSS with 20 mM HEPES and 1% DMSO to achieve 1.33x10^6cells/ml. This cell suspension was then dispensed at 3 μl/well to the 1536 well plates (Greiner Bio One part 789072) at a density of 4,000 cells/well. Measurements of fluorescence intensity (λex = 470 nm, λem = 535 nm) were made using a FLIPR (Molecular Devices FLIPR Tetra). A read of basal fluorescence values was made (5s) prior to addition of compounds or controls (30 nl). In both ‘agonist’ and ‘antagonist mode’, the total assay volume was 6μl (1% DMSO). […] Ligand performance was categorized using an algorithm based on the activity of the entire dataset to define a ‘hit-cutoff’ parameter for both agonist-mode and antagonist-mode screening. Any compound with greater percent activation than this cutoff was assigned as ‘active’ prior to titration and counter-screening. Titration assays were executed using the same reagents, protocols and detection systems, done as 10-point concentration-response curves, performed in triplicate. Counter-screening was performed using untransfected HEK293 cells for comparison with results testing the same compounds effect on cells expressing Sm.TRPMPZQ, with ATP used as the positive control. For each compound, activity was plotted against compound concentration and data were fitted with a sigmoidal function. In order to be considered a hit at this stage a compound must achieve a EC50<5 μM for agonists and IC50 <5 μM for antagonists. All compounds selected for titration were subjected to LC-MS analysis to confirm mass and sample purity. ChemAxon (https://www.chemaxon.com) academic licensing was provided for the use of Instant JChem (ver. 15.10.12.0) to perform compound mining of the libraries utilized in this effort.

[4] = tested on: untransfected HEK293 cells; test: Counterscreen, antagonist mode, Ca2+ signal in untransfected HEK cells; assay type: cell-based; details: S3 Table, counterscreen titration
Experimental: as §1

Sm.TRPMPZQ [5] = target: T1, Sm.TRPMPZQ; details: human TRPM8 agonists; cited from earlier work
endogenous receptors = details: confocal Ca2+ imaging; cited from earlier work

T1 sequence (A0A5K4F0X5 entry or part of it): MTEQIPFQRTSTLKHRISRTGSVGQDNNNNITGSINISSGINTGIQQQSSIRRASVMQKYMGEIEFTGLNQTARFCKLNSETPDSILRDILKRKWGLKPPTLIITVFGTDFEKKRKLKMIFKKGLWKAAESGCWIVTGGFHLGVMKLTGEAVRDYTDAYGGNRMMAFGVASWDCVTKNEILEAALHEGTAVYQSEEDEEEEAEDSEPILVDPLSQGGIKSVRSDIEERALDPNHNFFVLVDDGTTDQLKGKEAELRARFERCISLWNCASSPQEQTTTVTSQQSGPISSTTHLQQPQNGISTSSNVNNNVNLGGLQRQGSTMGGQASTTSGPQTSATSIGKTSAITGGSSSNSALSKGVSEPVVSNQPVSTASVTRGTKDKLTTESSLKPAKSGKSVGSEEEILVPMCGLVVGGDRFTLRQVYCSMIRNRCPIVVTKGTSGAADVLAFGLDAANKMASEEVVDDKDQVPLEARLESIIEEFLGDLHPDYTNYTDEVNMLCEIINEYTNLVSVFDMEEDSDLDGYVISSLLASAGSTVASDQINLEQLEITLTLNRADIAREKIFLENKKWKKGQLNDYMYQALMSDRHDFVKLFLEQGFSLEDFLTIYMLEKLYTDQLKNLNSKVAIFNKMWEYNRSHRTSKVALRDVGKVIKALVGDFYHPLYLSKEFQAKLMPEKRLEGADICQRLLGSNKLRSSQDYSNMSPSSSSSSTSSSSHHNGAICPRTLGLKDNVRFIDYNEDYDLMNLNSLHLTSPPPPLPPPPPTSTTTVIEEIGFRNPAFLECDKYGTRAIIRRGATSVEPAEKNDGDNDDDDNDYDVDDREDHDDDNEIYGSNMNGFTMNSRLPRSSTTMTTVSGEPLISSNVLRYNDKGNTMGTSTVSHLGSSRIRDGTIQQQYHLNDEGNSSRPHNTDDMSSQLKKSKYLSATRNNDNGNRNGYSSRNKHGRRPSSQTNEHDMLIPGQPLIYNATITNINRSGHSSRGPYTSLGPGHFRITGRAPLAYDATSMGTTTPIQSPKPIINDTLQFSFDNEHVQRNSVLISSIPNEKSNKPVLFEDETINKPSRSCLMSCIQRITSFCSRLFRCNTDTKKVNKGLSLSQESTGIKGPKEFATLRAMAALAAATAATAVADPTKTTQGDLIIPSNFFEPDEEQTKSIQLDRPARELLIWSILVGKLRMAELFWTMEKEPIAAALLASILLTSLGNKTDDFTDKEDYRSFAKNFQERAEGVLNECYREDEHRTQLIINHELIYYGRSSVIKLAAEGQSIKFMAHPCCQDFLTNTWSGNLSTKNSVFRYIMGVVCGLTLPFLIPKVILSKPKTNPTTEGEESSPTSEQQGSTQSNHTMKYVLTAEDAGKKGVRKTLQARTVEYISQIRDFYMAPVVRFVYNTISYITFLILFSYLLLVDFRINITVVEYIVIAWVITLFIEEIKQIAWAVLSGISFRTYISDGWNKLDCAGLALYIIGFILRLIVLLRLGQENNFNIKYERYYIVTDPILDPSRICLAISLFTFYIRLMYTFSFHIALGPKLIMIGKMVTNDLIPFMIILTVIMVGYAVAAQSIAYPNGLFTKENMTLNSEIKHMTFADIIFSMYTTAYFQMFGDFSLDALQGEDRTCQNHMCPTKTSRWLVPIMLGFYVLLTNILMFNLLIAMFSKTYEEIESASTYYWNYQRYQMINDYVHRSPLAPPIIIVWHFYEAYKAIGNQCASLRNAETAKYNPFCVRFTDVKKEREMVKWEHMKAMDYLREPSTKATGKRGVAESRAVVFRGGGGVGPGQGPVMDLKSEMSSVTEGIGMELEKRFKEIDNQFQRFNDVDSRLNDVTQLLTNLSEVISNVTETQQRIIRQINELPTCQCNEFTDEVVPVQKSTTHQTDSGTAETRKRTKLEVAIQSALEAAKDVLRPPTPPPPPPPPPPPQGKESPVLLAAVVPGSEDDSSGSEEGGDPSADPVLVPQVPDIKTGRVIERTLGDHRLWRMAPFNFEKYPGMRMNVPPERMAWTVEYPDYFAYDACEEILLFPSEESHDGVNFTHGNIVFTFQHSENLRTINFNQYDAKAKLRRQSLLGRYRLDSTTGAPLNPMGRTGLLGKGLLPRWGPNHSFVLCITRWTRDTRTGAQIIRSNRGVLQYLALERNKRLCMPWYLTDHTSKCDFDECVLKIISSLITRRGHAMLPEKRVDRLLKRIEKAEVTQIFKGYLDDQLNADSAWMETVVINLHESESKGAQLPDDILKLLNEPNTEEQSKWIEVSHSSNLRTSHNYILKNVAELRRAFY

Cc1cc(C)n(-c2ccc(-n3cccc3/C=C(/C#N)S(=O)(=O)c3ccccc3)cc2)n1 [SR-02000000290-3]
Sm.TRPMPZQ AG Averaged Max % Response (Sm.TRPMPZQ [1]): 6.499% | Sm.TRPMPZQ ANT Averaged Max % Response (Sm.TRPMPZQ [2]): 71.9269% | HEK AG Averaged Max % Response [3]: 13.2678% | EC50 [3]: > 12.4 µM | HEK ANT Averaged Max % Response [4]: 37.5091%

FC(F)(F)c1ccc2c(c1)nc(SCc1ccccc1)n2CCc1ccccc1 [SR-07000003001-2]
Sm.TRPMPZQ AG Averaged Max % Response (Sm.TRPMPZQ [1]): 3.104% | Sm.TRPMPZQ ANT Averaged Max % Response (Sm.TRPMPZQ [2]): 61.2456% | HEK AG Averaged Max % Response [3]: 8.753% | EC50 [3]: > 12.4 µM | HEK ANT Averaged Max % Response [4]: 21.2984%

CC1CCC(C(C)C)C(O)C1 (stereo not shown) [menthol]
activation of Sm.TRPMPZQ (Sm.TRPMPZQ [5]): not activated

Nc1ncnc2c1ncn2[C@@H]1O[C@H](COP(=O)(O)OP(=O)(O)OP(=O)(O)O)[C@@H](O)[C@H]1O [ATP]
ΔF/F, amplitude of Ca2+ transient (endogenous receptors): 4.5±1.5

O=C1NC(c2cccc([N+](=O)[O-])c2)=CCN1c1ccccc1O [icilin]
activation of Sm.TRPMPZQ (Sm.TRPMPZQ [5]): not activated
